# Data as given in publication PMC6213981, “Crystal structures and kinetics of N-acetylneuraminate lyase from Fusobacterium nucleatum” (Acta Crystallographica. Section F, Structural Biology …, 2018).
# Biological target: T1, FnNanA (Fusobacterium nucleatum, UniProt Q8RDN6)
# T1 construct: gene nanA; pET300/NT-DEST, synthetic DNA, E. coli BL21 (DE3); tetramer
# T1 sequence (Q8RDN6 1-290): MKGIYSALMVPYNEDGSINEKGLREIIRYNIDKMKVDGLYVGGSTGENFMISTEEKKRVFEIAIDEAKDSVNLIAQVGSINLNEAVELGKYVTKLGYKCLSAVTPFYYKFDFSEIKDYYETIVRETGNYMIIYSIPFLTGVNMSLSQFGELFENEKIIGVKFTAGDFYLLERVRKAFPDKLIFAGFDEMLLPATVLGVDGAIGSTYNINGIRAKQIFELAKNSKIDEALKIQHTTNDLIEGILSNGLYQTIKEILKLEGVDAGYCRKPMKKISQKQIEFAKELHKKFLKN
# Experiment: X-ray crystal structure, […] Å
# Assay type: binding
# Conditions: covalent; Schiff base with Lys161 in active site; crystallised at pH 9.5, 277 K
smiles,measurement,value
CC(=O)C(=O)O [pyruvate],"X-ray crystal structure, 1.76 Å",N∊ atom of Lys161 is conjugated as a Schiff base to the C2 atom of pyruvate
